Values joined by “and” are separate entries in the source; they are usually repeats but may differ in a detail not shown here. Equal values may be shown once.
Experiments:
EGFR = biological target: T1, EGFR (Homo sapiens, UniProt P00533); test: EGFR Kinase Assay; type: biochemical; settings: for IC50: GST-EGFR, 5 μM ATP
T1 construct: started at nucleotide 2189 (corresponding to amino acid 667) and ended at the termination codon; made in house; host or cells: Sf9 insect cells (baculovirus)
Description: The portion was PCR amplified with primers that added the lambda attB sequences to each end, recombined into an entry vector, then into a, GST destination vector (as described in Gateway Technologies Manual by Invitrogen Corporation, Carlsbad, Calif.).
The destination vector was recombined in the DH10BAC strain of bacteria to produce a bacmid. The bacmid was transfected into Sf 9 cells and the supernatant containing the baculovirus was collected. The GSTEGFR protein was purified using large cultures of Sf 9 cells infected with stock virus. After an appropriate period of time, the cells were collected and lysed. The GSTEGFR was then purified from the lysate on Glutathione-Sepharose columns (as described by Amersham Biosciences, Buckinghamshire, United Kingdom).
The free biotin was separated from the biotinylated polyGluTyr on a gel filtration column.
A mixture of a 10× kinase buffer (500 mM Tris at pH 8.0, 100 mM Magnesium Chloride and 1 mM Sodium Vanadate), DTT (1 mM final from 500 mM stock), ATP (5 μM final from 10 mM stock), biotinylated polyGluTyr (10 μg/μL stock), γ-^33P ATP (10 μCi/μL stock) and water was added to each well (90 μL/well) of a Streptavidin Flashplate (Perkin Elmer, Wellesley, Mass.).
Test compound in 100% DMSO (2 μL) was added to the appropriate wells. Diluted GSTEGFR (1:300 dilution in 50 mM Tris at pH 8.0 and 0.1% bovine serum albumin) (10 μL) was added to the wells to initiate the reactions.
The plates were incubated at 30° C. for 1 hr with shaking. The reacted contents were removed and the plates were sequentially washed three times with a 1×PBS stop buffer (300 μL without Magnesium and Calcium) and 100 mM EDTA. After the final wash, the same stop buffer (200 μL) was added to the wells. The plates were then sealed and read on the TopCount scintillation counter.
Test compounds were assayed in triplicate at 16 concentrations at half-log dilutions starting at 200 uM. A maximum and minimum signal for the assay was determined on each plate. The percent inhibition of a test compound was calculated according to the formula
For a series of test concentrations, the IC50 was derived by graphing percent inhibition against the log of the concentrations tested for a given compound.

SK-OV-3 [1] = test: Cell Proliferation Inhibition Assay (14C-thymidine incorporation), SK-OV-3; type: cell-based; settings: Homo sapiens
Procedure: The ability of a test compound to inhibit unregulated cell proliferation may be determined by measuring incorporation of ^14C-labelled thymidine into newly synthesized DNA within cell lines derived from carcinomas originating from several tissues. Accordingly, the anti-proliferative effect of a compound on cells with a variety of phenotypes may be determined.
The carcinoma cells are trypsinized and counted. The cells (3000-8000 count) are added to each well of a 96-well CytoStar tissue culture treated scintillating microplate (Amersham #RPNQ0160) in complete medium (100 μL) and the plate is then incubated in complete medium for 24 hrs at 37° C. in an inert atmosphere containing 5% CO2. Test compound (1 μL) in 100% DMSO is added to the plate test-wells with DMSO only added to control-wells.
The plate contents are then discarded, the plate is washed twice with PBS (200 μL) and then PBS (200 μL) is added to each well. The plate is sealed and the degree of methyl ^14C-thyrnidine incorporation is quantified on a Packard Top Count.

SK-OV-3 [2] = test: SK-OV-3 Cell Migration Inhibition; type: cell-based; settings: several values in a cell are repeat determinations
c-Src kinase = biological target: T2, c-Src kinase (Homo sapiens, UniProt P12931); test: c-Src Kinase Assay; type: biochemical; settings: test concentration of 1 μM
T2 construct: purchased Upstate Biotechnology, Lake Placid, N.Y
Procedure: A mixure of a 10× kinase buffer (80 mM MOPS at pH 7.0, 2 mM EDTA and 100 mM Magnesium Chloride), ATP (5 μM final from a 10 mM stock), a Cdc2 peptide […] (100 μM final from a 2.5 mM stock), γ-^33P ATP (10 μCi/μL stock) and water (20 μL/well) was added to each well of a Streptavidin Flashplate.
Test compound in 100% DMSO (0.5 μL) was added to the appropriate wells. Diluted c-Src kinase (human) (Upstate Biotechnology, Lake Placid, N.Y.) (diluted in a buffer consisting of 20 mM MOPS at pH 7.0, 1 mM EDTA, β-mercaptoethanol (0.1%), Brij-35 (0.01%), glycerol (5%), and 1 mg/mL bovine serum albumin) (2.5 μL) was added to the wells to initiate the reactions. The reaction plates were incubated at 30° C. for 40 min. The reaction was terminated by the addition of a 3% phosphoric acid solution (5 μL). The reaction product (10 μL) was spotted onto a P30 filtermat and washed for 5 minutes in phosphoric acid (75 mM). The wash sequence was repeated two more times, followed with one final wash in methanol. The plates were then dried, sealed and read on the TopCount scintillation counter after adding 30 μL scintillation fluid.
Percent inhibition was derived according to the procedure described in Example 5. The results for those compounds tested are shown in Table 2 at a test concentration of 1 μM.

[3] = Homo sapiens, SK-OV-3, SK-OV-3 migration

T1 sequence (P00533 667-1210 limits assumed): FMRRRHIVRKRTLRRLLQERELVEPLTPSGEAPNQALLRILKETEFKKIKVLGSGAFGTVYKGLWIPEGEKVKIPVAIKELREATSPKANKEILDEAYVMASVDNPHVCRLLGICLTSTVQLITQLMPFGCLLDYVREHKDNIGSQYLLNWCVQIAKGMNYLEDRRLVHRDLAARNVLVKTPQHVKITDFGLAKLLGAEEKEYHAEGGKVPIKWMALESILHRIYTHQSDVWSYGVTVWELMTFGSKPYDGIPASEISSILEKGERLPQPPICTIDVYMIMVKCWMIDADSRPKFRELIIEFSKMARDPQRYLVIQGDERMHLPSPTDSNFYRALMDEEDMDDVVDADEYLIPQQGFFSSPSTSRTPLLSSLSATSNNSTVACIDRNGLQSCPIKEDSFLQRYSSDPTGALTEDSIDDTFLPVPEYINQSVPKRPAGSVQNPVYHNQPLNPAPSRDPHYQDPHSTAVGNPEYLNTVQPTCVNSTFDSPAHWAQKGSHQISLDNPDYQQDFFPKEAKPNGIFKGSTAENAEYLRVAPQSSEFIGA
T2 sequence (P12931 whole entry): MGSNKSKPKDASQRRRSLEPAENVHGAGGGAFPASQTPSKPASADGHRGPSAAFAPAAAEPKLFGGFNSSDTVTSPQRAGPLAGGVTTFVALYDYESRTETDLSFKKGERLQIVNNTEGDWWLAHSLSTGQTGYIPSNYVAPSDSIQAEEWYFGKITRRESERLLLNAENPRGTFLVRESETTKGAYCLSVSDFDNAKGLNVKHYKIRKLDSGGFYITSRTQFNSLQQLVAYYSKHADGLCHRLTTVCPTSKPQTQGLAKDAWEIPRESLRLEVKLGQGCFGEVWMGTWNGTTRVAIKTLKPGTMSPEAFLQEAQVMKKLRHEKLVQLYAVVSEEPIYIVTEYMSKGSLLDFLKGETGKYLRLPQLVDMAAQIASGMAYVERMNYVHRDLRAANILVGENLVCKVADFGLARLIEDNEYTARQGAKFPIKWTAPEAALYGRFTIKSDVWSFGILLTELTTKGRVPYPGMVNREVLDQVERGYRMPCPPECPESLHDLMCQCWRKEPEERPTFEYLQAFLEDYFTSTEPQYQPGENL

Structure (SMILES)	IC50 (EGFR)	further results
Fc1ccc(Nc2ncnc3nc(Nc4ccc(CN5CCCCC5)cc4)sc23)cc1Cl [Cpd 2, N^7-(3-chloro-4-fluoro-phenyl)-N^2-(4-piperidin-1-ylmethyl-phenyl)-thiazolo[4,5-d]pyrimidine-2,7-diamine]	8.9 nM	IC50 (SK-OV-3 [1]): 490 nM
Fc1ccc(Nc2ncnc3nc(Nc4ccc(CCN5CCOCC5)cc4)sc23)cc1Cl [Cpd 4, N^7-(3-chloro-4-fluoro-phenyl)-N^2-[4-(2-morpholin-4-yl-ethyl)-phenyl]-thiazolo[4,5-d]pyrimidine-2,7-diamine]	21.7 nM	IC50 (SK-OV-3 [2]; [3]): 735 nM; IC50 (SK-OV-3 [2]; SK-OV-3 migration): 520 nM
CN(C)CCCNS(=O)(=O)c1ccc(Nc2nc3ncnc(Nc4ccc(F)c(Cl)c4)c3s2)cc1 [Cpd 31, 4-[7-(3-chloro-4-fluoro-phenylamino)-thiazolo[4,5-d]pyrimidin-2-ylamino]-N-(3-dimethylamino-propyl)-benzenesulfonamide]	10.3 nM	IC50 (SK-OV-3 [2]; [3]): 138 nM; IC50 (SK-OV-3 [2]; SK-OV-3 migration): 180 nM and 191 nM
COCCN(CCOC)S(=O)(=O)c1ccc(Nc2nc3ncnc(Nc4ccc(F)c(Cl)c4)c3s2)cc1 [Cpd 32, 4-[7-(3-chloro-4-fluoro-phenylamino)-thiazolo[4,5-d]pyrimidin-2-ylamino]-N,N-bis-(2-methoxy-ethyl)-benzenesulfonamide]	20.8 nM	IC50 (SK-OV-3 [2]; [3]): > 5000 nM
C#Cc1cccc(Nc2ncnc3nc(Nc4ccc(S(=O)(=O)N(CCOC)CCOC)cc4)sc23)c1 [Cpd 33, 4-[7-(3-ethynyl-phenylamino)-thiazolo[4,5-d]pyrimidin-2-ylamino]-N,N-bis-(2-methoxy-ethyl)-benzenesulfonamide]	25.3 nM	IC50 (SK-OV-3 [2]; [3]): 252 nM
COCCN(CCOC)Cc1ccc(Nc2nc3ncnc(Nc4ccc(F)c(Cl)c4)c3s2)cc1 [Cpd 34, N^2-(4-{[bis-(2-methoxy-ethyl)-amino]-methyl}-phenyl)-N^7-(3-chloro-4-fluoro-phenyl)-thiazolo[4,5-d]pyrimidine-2,7-diamine]	6.4 nM	IC50 (SK-OV-3 [2]; [3]): 210 nM
C#Cc1cccc(Nc2ncnc3nc(Nc4ccc(CN5CCOCC5)cc4)sc23)c1 [Cpd 35, N^7-(3-ethynyl-phenyl)-N^2-(4-morpholin-4-ylmethyl-phenyl)-thiazolo[4,5-d]pyrimidine-2,7-diamine]	30 nM	IC50 (SK-OV-3 [2]; [3]): 474 nM; IC50 (SK-OV-3 [2]; SK-OV-3 migration): 380 nM
NS(=O)(=O)c1ccc(Nc2nc3ncnc(Nc4ccc(F)c(Cl)c4)c3s2)cc1 [Cpd 73, 4-[7-(3-chloro-4-fluoro-phenylamino)-thiazolo[4,5-d]pyrimidin-2-ylamino]-benzenesulfonamnide]		inhibition at 1 µM (c-Src kinase): 65%
NS(=O)(=O)c1ccc(Nc2nc3ncnc(Nc4cccc(Br)c4)c3s2)cc1 [Cpd 78, 4-[7-(3-bromo-phenylamino)-thiazolo[4,5-d]pyrimidin-2-ylamino]-benzenesulfonamide]	10.5 nM	
Cc1cccc(Nc2ncnc3nc(Nc4ccc(S(N)(=O)=O)cc4)sc23)c1 [Cpd 79, 4-[7-(3-methyl-phenylamino)-thiazolo[4,5-d]pyrimidin-2-ylamino]-benzenesulfonamide]	14.3 nM	
NS(=O)(=O)c1ccc(Nc2nc3ncnc(Nc4ccccc4)c3s2)cc1 [Cpd 80, 4-[7-(phenylamino)-thiazolo[4,5-d]pyrimidin-2-ylamino]-benzenesulfonamide]	82.5 nM	
NS(=O)(=O)c1ccc(Nc2nc3ncnc(Nc4cc(Cl)cc(Cl)c4)c3s2)cc1 [Cpd 81, 4-[7-(3,5-dichloro-phenylamino)-thiazolo[4,5-d]pyrimidin-2-ylamino]-benzenesulfonamide]	116 nM	
NS(=O)(=O)c1ccc(Nc2nc3ncnc(Nc4ccc(Br)c(Cl)c4)c3s2)cc1 [Cpd 82, 4-[7-(4-bromo-3-chloro-phenylamino)-thiazolo[4,5-d]pyrimidin-2-ylamino]-benzenesulfonamide]	5 nM	
NS(=O)(=O)c1ccc(Nc2nc3ncnc(Nc4ccc(N5CCOCC5)c(Cl)c4)c3s2)cc1 [Cpd 83, 4-[7-(3-chloro-4-(morpholin-4-yl)-phenylamino)-thiazolo[4,5-d]pyrimidin-2-ylamino]-benzenesulfonamide]	3800 nM	
NS(=O)(=O)c1ccc(Nc2nc3ncnc(Nc4cccc(CN5CCOCC5)c4)c3s2)cc1 [Cpd 84, 4-[7-(3-(morpholin-4-yl)methyl-phenylamino)-thiazolo[4,5-d]pyrimidin-2-ylamino]-benzenesulfonamide]	3300 nM	
NS(=O)(=O)c1ccc(Nc2nc3ncnc(Nc4ccc(CCN5CCOCC5)cc4)c3s2)cc1 [Cpd 85, 4-[7-(4-(morpholin-4-yl)ethyl-phenylamino)-thiazolo[4,5-d]pyrimidin-2-ylamino]-benzenesulfonamide]	10100 nM	
NS(=O)(=O)c1ccc(Nc2nc3ncnc(Nc4ccc(N5CCOCC5)cc4)c3s2)cc1 [Cpd 86, 4-[7-(4-(morpholin-4-yl)-phenylamino)-thiazolo[4,5-d]pyrimidin-2-ylamino]-benzenesulfonamide]	17900 nM	
COc1ccc(Nc2ncnc3nc(Nc4ccc(S(N)(=O)=O)cc4)sc23)cc1CN1CCOCC1 [Cpd 87, 4-[7-(4-methoxy-3-(morpholin-4-yl)methyl-phenylamino)-thiazolo[4,5-d]pyrimidin-2-ylamino]-benzenesulfonamide]		inhibition at 2 µM (EGFR; test concentration of 2 μM, compounds without an IC50, read-out: EGFR percent inhibition): 13%
Fc1ccc(Nc2ncnc3nc(Nc4ccccc4)sc23)cc1Cl [Cpd 88, N^7-(3-chloro-4-fluoro-phenyl)-N^2-phenyl-thiazolo[4,5-d]pyrimidine-2,7-diamine]	59.3 nM	
Clc1cccc(Nc2ncnc3nc(Nc4ccccc4)sc23)c1 [Cpd 89, N^7-(3-chloro-phenyl)-N^2-phenyl-thiazolo[4,5-d]pyrirnidine-2,7-diamine]	27.1 nM	
Brc1cccc(Nc2ncnc3nc(Nc4ccccc4)sc23)c1 [Cpd 90, N^7-(3-bromo-phenyl)-N^2-phenyl-thiazolo[4,5-d]pyrimidine-2,7-diamine]	16.5 nM	
Clc1cc(Cl)cc(Nc2ncnc3nc(Nc4ccccc4)sc23)c1 [Cpd 91, N^7-(3,5-dichloro-phenyl)-N^2-phenyl-thiazolo[4,5-d]pyrimidine-2,7-diamine]	733 nM	
N#Cc1ccc(Nc2nc3ncnc(Nc4ccc(F)c(Cl)c4)c3s2)cc1 [Cpd 92, 4-[7-(3-chloro-4-fluoro-phenylamino)-thiazolo[4,5-d]pyrimidin-2-ylamino]-benzonitrile]	15.4 nM	
N#Cc1ccc(Nc2nc3ncnc(Nc4cccc(Cl)c4)c3s2)cc1 [Cpd 93, 4-[7-(3-chloro-phenylamino)-thiazolo[4,5-d]pyrimidin-2-ylamino]-benzonitrile]	25.5 nM	
